Tests used:
NOX2 = biological target: T1, NOX2 (Homo sapiens, UniProt P04839); assay: Nox2 cell-free assay (LO12 luminescence); format: biochemical; details: Nox2 cell-free system; for IC50: read-out: NOX2 IC50 (concentration giving half-maximal inhibition); for Emax: value in parentheses, read-out: % inhibition (maximum inhibition achieved at a very high concentration of the compound)
T1 construct: isolated plasma membranes from human neutrophils as a source for Nox2-p22phox; from tissue; host or cells: Plasma membranes of human neutrophils (Nox2-p22phox); cytosolic factors recombinant from E. coli
T1 sequence (P04839 2-570 limits assumed): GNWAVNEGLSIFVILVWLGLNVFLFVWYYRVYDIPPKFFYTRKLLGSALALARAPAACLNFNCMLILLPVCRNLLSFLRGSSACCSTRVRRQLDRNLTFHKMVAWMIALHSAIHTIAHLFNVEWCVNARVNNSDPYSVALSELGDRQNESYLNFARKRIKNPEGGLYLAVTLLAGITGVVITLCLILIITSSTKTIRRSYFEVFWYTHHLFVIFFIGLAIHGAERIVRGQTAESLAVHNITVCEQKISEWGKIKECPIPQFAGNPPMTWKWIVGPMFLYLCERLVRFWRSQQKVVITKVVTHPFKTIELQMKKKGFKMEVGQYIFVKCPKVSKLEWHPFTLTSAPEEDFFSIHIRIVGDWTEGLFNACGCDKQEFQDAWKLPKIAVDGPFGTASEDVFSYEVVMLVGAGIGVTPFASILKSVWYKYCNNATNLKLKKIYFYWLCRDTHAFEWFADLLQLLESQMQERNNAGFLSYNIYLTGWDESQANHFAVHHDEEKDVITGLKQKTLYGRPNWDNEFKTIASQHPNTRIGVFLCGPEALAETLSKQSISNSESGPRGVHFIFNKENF
T1 sequence (P13498 2-195 partner limits assumed): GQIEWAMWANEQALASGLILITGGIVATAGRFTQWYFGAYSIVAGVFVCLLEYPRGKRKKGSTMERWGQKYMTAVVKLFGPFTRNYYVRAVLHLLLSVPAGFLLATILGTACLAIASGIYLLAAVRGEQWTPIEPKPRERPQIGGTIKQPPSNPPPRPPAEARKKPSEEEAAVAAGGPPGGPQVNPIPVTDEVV
Method: The following compounds were tested according to the procedures provided in the experimental section. Assays were carried out using the Nox2 cell-free system. The IC50 value is the concentration giving half-maximal inhibition, while the “% inhibition” shown in parentheses is the maximum inhibition achieved at a very high concentration of the compound. 100% refers to complete inhibition within experimental error of the assay.
In certain assays a Cell-Free recombinant NOX-2 system (consisting of isolated plasma membranes from human neutrophils as a source for Nox2-p22phox, supplemented with recombinant p47phox, p67phox and Rac1Q61L (activated Rac), expressed in and isolated from of E. coli. LO12 luminescence was used as a readout to monitor enzymatic activity.
Plasma membranes were prepared from human neutrophils, which express large amounts of Nox2 and stored at −80 C until use. Membranes are mixed with recombinant, purified cytosolic regulatory proteins (p67Np47 chimera, and constitutively active Rac1 mutant Q61) and FAD, along with varying concentrations of compound, and LO12, which luminesces when it reacts with ROSvi. The reaction is started by addition of NADPH and SDS (an artificial stimulus for Nox2). See Curnutte et al., (1987) J. Biol. Chem. 262: 6450-6452.

human neutrophils = assay: ROS production in human neutrophils; format: cell-based; details: Neutrophil, which express the Nox2 system, read-out: IC50 of inhibition of ROS production
Excerpt: The Nox2 inhibition activity of two compounds is shown in FIG. 1, along with data from the two assay controls.

Nox4 DH = biological target: T2, Nox4 DH (Homo sapiens, UniProt Q9NPH5); assay: Nox4 DH inhibition kinetics with NADPH; format: biochemical; details: versus substrate NADPH; major effect on apparent Km, minor effect on Vmax
T2 sequence (Q9NPH5 304-578 limits assumed): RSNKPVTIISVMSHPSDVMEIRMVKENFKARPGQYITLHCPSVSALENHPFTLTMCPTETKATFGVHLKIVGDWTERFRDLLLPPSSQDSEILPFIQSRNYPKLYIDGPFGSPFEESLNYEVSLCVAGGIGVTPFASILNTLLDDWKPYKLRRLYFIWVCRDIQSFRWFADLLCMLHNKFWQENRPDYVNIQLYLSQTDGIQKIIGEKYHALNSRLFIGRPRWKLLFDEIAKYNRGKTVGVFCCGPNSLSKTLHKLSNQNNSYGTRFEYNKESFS

Compound: CN(C)CCCCn1c(SCC(=O)Nc2nc(-c3ccc(Br)cc3)cs2)nc2ccccc2c1=O [AS158b]
- IC50 (NOX2): 2000 nM
- Emax (NOX2): 100%
- IC50 (human neutrophils): 1500 nM

Compound: CN(C)CCCn1c(=S)[nH]c2ccc(Cl)cc2c1=O.Cl [TG6-44]
- IC50 (NOX2): 1000 nM
- Emax (NOX2): 100%
- mode of inhibition of Nox4 DH (Nox4 DH): competitive inhibitor
- IC50 (human neutrophils): 2000 nM

Compound: CSc1nc2ccc(Cl)cc2c(=O)n1CCC[N+](C)(C)C [TG6-59]
- IC50 (NOX2): 3000 nM
- Emax (NOX2): 75%

Compound: CN(C)CCCn1c(SCC(=O)Nc2nc(-c3ccc(Br)cc3)cs2)nc2c(c1=O)CCCC2 [AS-260]
- IC50 (NOX2): 17500 nM

Compound: CC(Sc1nc2ccccc2c(=O)n1CCCO)C(=O)Nc1nc(-c2ccccc2)cs1 (stereo not drawn) [Sample T5826778]
- IC50 (NOX2): > 10000 nM
- Emax (NOX2): 90%

Compound: CN(C)CCCn1c(=S)[nH]c2ccccc2c1=O [TG6-17-2]
- IC50 (NOX2): 6500 nM
- Emax (NOX2): 60%

Compound: CSc1nc2ccccc2c(=O)n1CCC[N+](C)(C)C [TG6-67]
- IC50 (NOX2): 1500 nM
- Emax (NOX2): 95%

Compound: CCSc1nc2ccccc2c(=O)n1CCCN1CCOCC1 [TG6-99-1]
- NOX2 IC50 (concentration giving half-maximal inhibition) (NOX2): Not active

Compound: CCN(CC)CCn1c(SCC(=O)Nc2nc(-c3cccc(Br)c3)cs2)nc2ccccc2c1=O [TG6-49]
- IC50 (NOX2): 2000 nM
- Emax (NOX2): 30%

Compound: COc1ccc(-c2csc(NC(=O)CSc3nc4ccccc4c(=O)n3CCCN(C)C)n2)cc1 [TG6-36-2]
- IC50 (NOX2): 11000 nM
- Emax (NOX2): 95%

Compound: CN(C)c1cccc(-n2c(=S)[nH]c3ccc(Cl)cc3c2=O)c1 [TG6-285]
- IC50 (NOX2): 1300 nM

Compound: CCOc1cc2[nH]c(=S)n(N)c(=O)c2cc1OC [AS-278]
- IC50 (NOX2): 600 nM

Compound: COc1cc2[nH]c(=S)n(CCCN(C)C)c(=O)c2cc1OC [TG6-63]
- IC50 (NOX2): 2000 nM
- Emax (NOX2): 60%

Compound: CCN(CC)CCn1c(=S)[nH]c2ccccc2c1=O [TG6-27-2]
- IC50 (NOX2): 5500 nM
- Emax (NOX2): 97%

Compound: Cc1csc(NC(=O)CSc2nc3ccccc3c(=O)n2CCCN(C)C)n1 [TG6-18]
- IC50 (NOX2): > 10000 nM

Compound: CN(C)CCCn1c(=S)[nH]c2ccc(F)cc2c1=O [TG6-79]
- IC50 (NOX2): 1500 nM
- Emax (NOX2): 60%

Compound: COc1ccc(N2CCN(CCn3c(=S)[nH]c4cc(OC)c(OC)cc4c3=O)CC2)cc1 [TG7-29]
- IC50 (NOX2): 700 nM

Compound: CN(C)CCCn1c(SCC(=O)NCc2ccco2)nc2ccccc2c1=O [TG6-23]
- IC50 (NOX2): > 10000 nM

Compound: O=c1c2cc(Cl)ccc2[nH]c(=S)n1CCN1CCNCC1 [TG6-170]
- IC50 (NOX2): 2000 nM

Compound: CN(C)CCCn1c(=S)[nH]c2cc(Cl)ccc2c1=O [TG6-62]
- IC50 (NOX2): 5000 nM
- Emax (NOX2): 90%

Compound: CN(C)CCCn1c(=O)[nH]c2ccccc2c1=O [TG6-31]
- NOX2 IC50 (concentration giving half-maximal inhibition) (NOX2): Not active
